Source: patent publication US8106055B2, “Substituted amide compounds” (Gruenenthal GmbH, priority 2007, dated 2012)

How the values were obtained:
human μ opiate receptor = target: T1, human μ opiate receptor (Homo sapiens, UniProt P35372); experiment: Affinity for the human μ opiate receptor ([3H]-naloxone displacement, CHO-K1 receptor membrane preparation, SPA); format: binding; conditions: test concentration of 1 μM
T1 construct: purchased PerkinElmer Life Sciences, Zaventem, Belgium RB-HOM; host or cells: CHO-K1 cells (membrane preparation)
How it was run: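 Readout is percent displacement of [3H]-naloxone (1 nmol/l) from human μ receptor in CHO-K1 membranes, measured at 1 μmol/l compound. Incubation runs 90 minutes at room temperature with WGA-SPA beads in Tris-HCl/BSA buffer; non-specific binding is defined with 100 μmol/l naloxone.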

[1] = target: T2, serotonin (5-HT) reuptake (Rattus norvegicus, UniProt P31652); experiment: Inhibition of serotonin (5HT) reuptake in synaptosomes from rat brain; format: biochemical; conditions: test concentration of 10 μM
T2 construct: synaptosomes are freshly isolated from areas of the rat brain; from tissue; host or cells: rat brain synaptosomes (P2 fraction)
How it was run: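 Freshly isolated rat brain synaptosomes (P2 fraction) used for 5-HT reuptake. Test compound at 10 μM, activity given as % inhibition.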

T2 sequence (P31652 whole entry): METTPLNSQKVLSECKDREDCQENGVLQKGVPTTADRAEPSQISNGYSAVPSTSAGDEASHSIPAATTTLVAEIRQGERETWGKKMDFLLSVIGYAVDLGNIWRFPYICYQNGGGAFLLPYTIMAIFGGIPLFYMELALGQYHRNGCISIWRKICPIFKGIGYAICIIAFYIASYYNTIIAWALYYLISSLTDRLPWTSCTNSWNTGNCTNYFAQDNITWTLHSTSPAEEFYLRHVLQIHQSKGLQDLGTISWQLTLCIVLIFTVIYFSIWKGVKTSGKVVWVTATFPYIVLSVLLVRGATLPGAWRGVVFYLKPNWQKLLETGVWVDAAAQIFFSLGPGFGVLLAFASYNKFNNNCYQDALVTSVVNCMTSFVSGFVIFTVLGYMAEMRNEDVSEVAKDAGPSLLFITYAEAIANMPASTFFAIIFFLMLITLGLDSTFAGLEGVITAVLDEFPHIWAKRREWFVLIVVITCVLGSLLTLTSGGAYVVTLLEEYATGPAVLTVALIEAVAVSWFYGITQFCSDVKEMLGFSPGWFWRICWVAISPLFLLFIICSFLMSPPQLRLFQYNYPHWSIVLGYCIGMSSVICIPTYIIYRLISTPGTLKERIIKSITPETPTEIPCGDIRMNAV
T1 sequence (P35372 whole entry): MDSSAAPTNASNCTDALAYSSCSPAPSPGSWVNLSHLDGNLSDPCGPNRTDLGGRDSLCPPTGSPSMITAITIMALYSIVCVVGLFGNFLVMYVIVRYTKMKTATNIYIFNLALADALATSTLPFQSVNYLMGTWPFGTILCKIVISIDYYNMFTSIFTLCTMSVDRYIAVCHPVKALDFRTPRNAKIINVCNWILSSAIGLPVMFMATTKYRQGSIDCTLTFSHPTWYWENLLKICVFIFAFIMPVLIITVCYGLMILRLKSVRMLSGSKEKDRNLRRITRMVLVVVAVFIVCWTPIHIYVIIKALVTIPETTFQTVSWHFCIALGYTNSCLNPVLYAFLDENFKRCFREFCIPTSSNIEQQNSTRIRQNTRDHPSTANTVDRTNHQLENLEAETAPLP

Row | SMILES | μ (binding on the μ opioid receptor, % inhibition) (human μ opiate receptor) | 5-HT (inhibition of reuptake of serotonin, % inhibition) [1]
1 | CN(C)C(c1ccc(F)cc1)C1CCC(NC(=O)COC2CCCN(S(=O)(=O)c3ccccc3)C2)CC1 (stereo not drawn) [Example 423] | 47% | 95%
2 | COc1cc(C)c(S(=O)(=O)N(CCOCC(=O)NCC2CCC(C(c3cccc(F)c3)N(C)C)CC2)Cc2ccccc2)c(C)c1 (stereo not drawn) [Example 388] | 65% | 91%
3 | CN(C)C(c1ccc(Cl)cc1)C1CCC(CCNC(=O)COCCN(Cc2ccccc2)S(=O)(=O)c2ccccc2)CC1 (stereo not drawn) [Example 426] | 48% | 95%
4 | CN(C)C(c1ccc(F)cc1)C1CCC(NC(=O)COC2CCN(S(=O)(=O)c3ccccc3)CC2)CC1 (stereo not drawn) [Example 408] | 48% | 93%
5 | CN(C)C(c1ccc(F)cc1)C1CCC(NC(=O)COCCN(C)S(=O)(=O)c2c(Cl)cccc2Cl)CC1 (stereo not drawn) [Example 363] | 59% | 73%
6 | CN(C)C(c1ccc(F)cc1)C1CCC(CNC(=O)COCCN(C)S(=O)(=O)c2c(Cl)cc(Cl)cc2Cl)CC1 (stereo not drawn) [Example 404] | 53% | 96%
7 | COc1cc(C)c(S(=O)(=O)N2CCC(OCC(=O)NC3CCC(C(c4ccc(F)cc4)N(C)C)CC3)C2)c(C)c1 (stereo not drawn) [Example 441] | 49% | 99%
8 | CN(C)C(c1ccc(F)cc1)C1CCC(CCNC(=O)COCCN(C)S(=O)(=O)c2ccc(Cl)cc2)CC1 (stereo not drawn) [Example 377] | 59% | 88%
9 | COc1ccc(S(=O)(=O)N2Cc3ccccc3CC2COCC(=O)NCC2CCC(C(CCc3ccccc3)N(C)C)CC2)cc1 (stereo not drawn) [Example 373] | 62% | 85%
10 | CN(C)C(c1cccc(F)c1)C1CCC(NC(=O)COCCN2CCN(S(=O)(=O)c3ccccc3)CC2)CC1 (stereo not drawn) [Example 364] | 58% | 95%
11 | CN(C)C(c1ccc(F)cc1)C1CCC(CNC(=O)COCCN(C)S(=O)(=O)c2ccc(Cl)cc2)CC1 (stereo not drawn) [Example 399] | 52% | 89%
12 | COc1cc(C)c(S(=O)(=O)N2CCN(CCOCC(=O)NCCC3CCC(C(c4ccc(F)cc4)N(C)C)CC3)CC2)c(C)c1C (stereo not drawn) [Example 387] | 53% | 95%
13 | COc1cc(C)c(S(=O)(=O)N2CCC(OCC(=O)NC3CCC(C(c4ccc(F)cc4)N(C)C)CC3)C2)c(C)c1C (stereo not drawn) [Example 365] | 49% | 90%
14 | CN(C)C(c1ccc(Cl)cc1)C1CCC(CCNC(=O)COC2CCN(S(=O)(=O)c3ccc(F)cc3)C2)CC1 (stereo not drawn) [Example 440] | 47% | 95%
15 | COc1ccc(S(=O)(=O)N2CCCCC2COCC(=O)NCC2CCC(C(c3ccc(F)cc3)N(C)C)CC2)c(OC)c1 (stereo not drawn) [Example 405] | 52% | 89%
16 | CN(C)C(c1ccc(F)cc1)C1CCC(NC(=O)COCCN(C)S(=O)(=O)c2cccc(C(F)(F)F)c2)CC1 (stereo not drawn) [Example 438] | 51% | 84%
17 | CN(C)C(c1ccc(F)cc1)C1CCC(NC(=O)COCCN(C)S(=O)(=O)c2c(Cl)cc(Cl)cc2Cl)CC1 (stereo not drawn) [Example 382] | 60% | 96%
18 | COc1cc(C)c(S(=O)(=O)N2CCC(OCC(=O)NCC3CCC(C(c4ccc(Cl)cc4)N(C)C)CC3)C2)c(C)c1 (stereo not drawn) [Example 403] | 52% | 93%
19 | CCN(CCOCC(=O)NCCC1CCC(C(c2ccc(F)cc2)N(C)C)CC1)S(=O)(=O)c1c(C)cc(OC)c(C)c1C (stereo not drawn) [Example 413] | 55% | 96%
20 | COc1cc(C)c(S(=O)(=O)N2CCC(OCC(=O)NCCC3CCC(C(c4ccc(Cl)cc4)N(C)C)CC3)C2)c(C)c1C (stereo not drawn) [Example 412] | 50% | 95%

Row | SMILES | μ (binding on the μ opioid receptor, % inhibition) (human μ opiate receptor) | 5-HT (inhibition of reuptake of serotonin, % inhibition) [1]
21 | Cc1cc(C)c(S(=O)(=O)N2CCC(OCC(=O)NCC3CCC(C(c4ccc(F)cc4)N(C)C)CC3)C2)c(C)c1 (stereo not drawn) [Example 432] | 56% | 82%
22 | COc1cc(C)c(S(=O)(=O)N2CCCC(OCC(=O)NC3CCC(C(c4ccc(F)cc4)N(C)C)CC3)C2)c(C)c1C (stereo not drawn) [Example 435] | 48% | 91%
23 | CN(C)C(c1cccc(F)c1)C1CCC(CCNC(=O)COC2CCN(S(=O)(=O)c3ccccc3)CC2)CC1 (stereo not drawn) [Example 444] | 56% | 96%
24 | Cc1ccc(S(=O)(=O)N2CCC(OCC(=O)NC3CCC(C(c4ccc(F)cc4)N(C)C)CC3)C2)cc1 (stereo not drawn) [Example 371] | 57% | 85%
25 | COc1ccc(S(=O)(=O)N2Cc3ccccc3CC2COCC(=O)NCCC2CCC(C(c3ccc(Cl)cc3)N(C)C)CC2)cc1 (stereo not drawn) [Example 374] | 59% | 90%
26 | COc1cc(C)c(S(=O)(=O)N(C)CCOCC(=O)NCCC2CCC(C(c3ccc(F)cc3)N(C)C)CC2)c(C)c1 (stereo not drawn) [Example 392] | 57% | 89%
27 | COc1ccc(S(=O)(=O)N(C)CCOCC(=O)NCC2CCC(C(c3ccc(Cl)cc3)N(C)C)CC2)cc1OC (stereo not drawn) [Example 379] | 45% | 81%
28 | CN(C)C(c1ccc(F)cc1)C1CCC(CCNC(=O)COCCN(C)S(=O)(=O)c2cccc(C(F)(F)F)c2)CC1 (stereo not drawn) [Example 368] | 61% | 95%
29 | CN(C)C(c1ccc(Cl)cc1)C1CCC(CCNC(=O)COC2CCCCC2N(C)S(=O)(=O)c2ccc(Cl)c(Cl)c2)CC1 (stereo not drawn) [Example 410] | 50% | 78%
30 | CN(C)C(c1ccc(Cl)cc1)C1CCC(CNC(=O)COC2CCN(S(=O)(=O)c3ccc(F)cc3)C2)CC1 (stereo not drawn) [Example 394] | 56% | 93%
31 | CN(C)C(c1ccc(F)cc1)C1CCC(CNC(=O)COC2CCN(S(=O)(=O)c3cccc(C(F)(F)F)c3)C2)CC1 (stereo not drawn) [Example 402] | 53% | 77%
32 | CCN(CCOCC(=O)NC1CCC(C(c2ccc(F)cc2)N(C)C)CC1)S(=O)(=O)c1c(C)cc(OC)c(C)c1C (stereo not drawn) [Example 396] | 60% | 90%
33 | COc1cc(C)c(S(=O)(=O)N(C)CCOCC(=O)NCCC2CCC(C(c3ccc(Cl)cc3)N(C)C)CC2)c(C)c1 (stereo not drawn) [Example 378] | 58% | 83%
34 | Cc1ccc(S(=O)(=O)N(C)CCOCC(=O)NC2CCC(C(c3ccc(F)cc3)N(C)C)CC2)cc1 (stereo not drawn) [Example 448] | 41% | 94%
35 | CN(C)C(c1ccc(F)cc1)C1CCC(NC(=O)COC2CCN(S(=O)(=O)c3ccc(Cl)cc3)C2)CC1 (stereo not drawn) [Example 370] | 59% | 83%
36 | COc1ccc(S(=O)(=O)N2CCCC2COCC(=O)NCCC2CCC(C(c3ccc(F)cc3)N(C)C)CC2)cc1 (stereo not drawn) [Example 409] | 54% | 97%
37 | COc1cc(C)c(S(=O)(=O)N2CCCC(OCC(=O)NCC3CCC(C(c4ccc(Cl)cc4)N(C)C)CC3)C2)c(C)c1C (stereo not drawn) [Example 449] | 46% | 73%
38 | CN(C)C(CCc1ccccc1)C1CCC(CNC(=O)COCCN(C)S(=O)(=O)c2ccc(Cl)cc2)CC1 (stereo not drawn) [Example 445] | 44% | 87%
39 | CCN(CCOCC(=O)NCCC1CCC(C(c2ccc(Cl)cc2)N(C)C)CC1)S(=O)(=O)c1c(C)cc(OC)c(C)c1C (stereo not drawn) [Example 434] | 46% | 82%
